Experimental data taken from the NIST ThermoML archive (doi:10.1016/j.fluid.2018.10.006).

Settings: Fluid (supercritical or subcritical phases), Coaxial cylinder method

CCCCCC [hexane]
Settings | thermal conductivity [W/m/K]
511.55 K, 5000 kPa | 0.07163
511.55 K, 5100 kPa | 0.07163
511.55 K, 5300 kPa | 0.07217
511.55 K, 5500 kPa | 0.0724
511.55 K, 5800 kPa | 0.07283
511.55 K, 6000 kPa | 0.07313
511.55 K, 6200 kPa | 0.07344
511.55 K, 6400 kPa | 0.07374
511.55 K, 6600 kPa | 0.07406
511.55 K, 6800 kPa | 0.07437
511.55 K, 6900 kPa | 0.07456
511.55 K, 7100 kPa | 0.07481
511.55 K, 7200 kPa | 0.07501
511.55 K, 7300 kPa | 0.07513
511.55 K, 7500 kPa | 0.07618
511.55 K, 7800 kPa | 0.07658
511.55 K, 8000 kPa | 0.07685
511.55 K, 8200 kPa | 0.07712
511.55 K, 8300 kPa | 0.07719
511.55 K, 8400 kPa | 0.07733
511.55 K, 8500 kPa | 0.07746
511.55 K, 8600 kPa | 0.0776
511.55 K, 8700 kPa | 0.07767
511.55 K, 9000 kPa | 0.07803
511.55 K, 9100 kPa | 0.07815
511.55 K, 9200 kPa | 0.07822
511.55 K, 9300 kPa | 0.07828
511.55 K, 9400 kPa | 0.07837
511.55 K, 9700 kPa | 0.0787
511.55 K, 10000 kPa | 0.07902
511.79 K, 1600 kPa | 0.03961
511.79 K, 1800 kPa | 0.04006
511.79 K, 1900 kPa | 0.04052
511.79 K, 2000 kPa | 0.041
511.79 K, 2090 kPa | 0.04133
511.79 K, 2100 kPa | 0.04148
511.79 K, 2110 kPa | 0.04151
511.79 K, 2200 kPa | 0.04198
511.79 K, 2300 kPa | 0.0427
511.79 K, 2400 kPa | 0.04354
511.79 K, 2500 kPa | 0.04428
511.79 K, 2600 kPa | 0.04543
511.79 K, 2700 kPa | 0.04664
511.79 K, 2800 kPa | 0.04819
511.79 K, 2817 kPa | 0.04857
511.79 K, 2911 kPa | 0.05076
511.79 K, 2958 kPa | 0.052
511.79 K, 2987 kPa | 0.05281
511.79 K, 3000 kPa | 0.05337
511.79 K, 3049 kPa | 0.05564
511.79 K, 3076 kPa | 0.05734
511.79 K, 3093 kPa | 0.05872
511.79 K, 3101 kPa | 0.05933
511.79 K, 3113 kPa | 0.06039
511.79 K, 3121 kPa | 0.06126
511.79 K, 3133 kPa | 0.06272
511.79 K, 3143 kPa | 0.06414
511.79 K, 3151 kPa | 0.06537
511.79 K, 3156 kPa | 0.06613
511.79 K, 3163 kPa | 0.06743
511.79 K, 3167 kPa | 0.06811
511.79 K, 3169 kPa | 0.06851
511.79 K, 3172 kPa | 0.06906
511.79 K, 3175 kPa | 0.06962
511.79 K, 3177 kPa | 0.07014
511.79 K, 3179 kPa | 0.07048
511.79 K, 3181 kPa | 0.07092
511.79 K, 3183 kPa | 0.07134
511.79 K, 3185 kPa | 0.07166
511.79 K, 3186 kPa | 0.07193
511.79 K, 3188 kPa | 0.07227
511.79 K, 3189 kPa | 0.07257
511.79 K, 3190 kPa | 0.07273
511.79 K, 3191 kPa | 0.07304
511.79 K, 3192 kPa | 0.07319
511.79 K, 3193 kPa | 0.07344
511.79 K, 3194 kPa | 0.07367
511.79 K, 3195 kPa | 0.07382
511.79 K, 3196 kPa | 0.07398
511.79 K, 3197 kPa | 0.07424
511.79 K, 3198 kPa | 0.07446
511.79 K, 3199 kPa | 0.07463
511.79 K, 3200 kPa | 0.07479
511.79 K, 3202 kPa | 0.07528
511.79 K, 3204 kPa | 0.07561
511.79 K, 3205 kPa | 0.07578
511.79 K, 3206 kPa | 0.07595
511.79 K, 3209 kPa | 0.07635
511.79 K, 3212 kPa | 0.07676
511.79 K, 3214 kPa | 0.077
511.79 K, 3216 kPa | 0.07724
511.79 K, 3219 kPa | 0.07745
511.79 K, 3221 kPa | 0.07749
511.79 K, 3223 kPa | 0.07756
511.79 K, 3226 kPa | 0.07759
511.79 K, 3231 kPa | 0.07766
511.79 K, 3234 kPa | 0.07766
511.79 K, 3236 kPa | 0.07745
511.79 K, 3237 kPa | 0.07745
511.79 K, 3240 kPa | 0.07732
511.79 K, 3243 kPa | 0.07697
511.79 K, 3246 kPa | 0.07663
511.79 K, 3247 kPa | 0.07629
511.79 K, 3251 kPa | 0.07496
511.79 K, 3253 kPa | 0.07496
511.79 K, 3256 kPa | 0.07463
511.79 K, 3257 kPa | 0.07431
511.79 K, 3264 kPa | 0.07399
511.79 K, 3265 kPa | 0.07367
511.79 K, 3269 kPa | 0.07336
511.79 K, 3270 kPa | 0.07336
511.79 K, 3276 kPa | 0.07336
511.79 K, 3278 kPa | 0.07336
511.79 K, 3280 kPa | 0.07336
511.79 K, 3285 kPa | 0.07336
511.79 K, 3291 kPa | 0.07243
511.79 K, 3293 kPa | 0.07243
511.79 K, 3295 kPa | 0.07243
511.79 K, 3300 kPa | 0.07213
511.79 K, 3301 kPa | 0.07183
511.79 K, 3306 kPa | 0.07183
511.79 K, 3310 kPa | 0.07153
511.79 K, 3313 kPa | 0.07123
511.79 K, 3315 kPa | 0.07123
511.79 K, 3319 kPa | 0.07122
511.79 K, 3321 kPa | 0.07122
511.79 K, 3325 kPa | 0.07122
511.79 K, 3327 kPa | 0.07122
511.79 K, 3330 kPa | 0.07122
511.79 K, 3332 kPa | 0.07122
511.79 K, 3335 kPa | 0.07122
511.79 K, 3340 kPa | 0.07122
511.79 K, 3346 kPa | 0.07122
511.79 K, 3350 kPa | 0.07123
511.79 K, 3353 kPa | 0.07123
511.79 K, 3355 kPa | 0.07123
511.79 K, 3360 kPa | 0.07123
511.79 K, 3365 kPa | 0.07064
511.79 K, 3367 kPa | 0.07064
511.79 K, 3368 kPa | 0.07064
511.79 K, 3370 kPa | 0.07064
511.79 K, 3375 kPa | 0.07064
511.79 K, 3380 kPa | 0.07064
511.79 K, 3385 kPa | 0.07064
511.79 K, 3390 kPa | 0.07064
511.79 K, 3395 kPa | 0.07064
511.79 K, 3400 kPa | 0.07064
511.79 K, 3410 kPa | 0.07064
511.79 K, 3420 kPa | 0.07065
511.79 K, 3440 kPa | 0.07065
511.79 K, 3460 kPa | 0.07065
511.79 K, 3500 kPa | 0.07041
511.79 K, 3600 kPa | 0.06993
511.79 K, 3657 kPa | 0.06978
511.79 K, 3700 kPa | 0.06973
511.79 K, 3750 kPa | 0.06973
511.79 K, 3800 kPa | 0.06973
511.79 K, 3850 kPa | 0.06973
511.79 K, 3900 kPa | 0.06973
511.79 K, 3950 kPa | 0.06975
511.79 K, 3980 kPa | 0.06975
511.79 K, 4000 kPa | 0.06988
511.79 K, 4030 kPa | 0.06995
511.79 K, 4100 kPa | 0.07011
